Measured values: ChEMBL document CHEMBL5154887, “Novel CRBN-Recruiting Proteolysis-Targeting Chimeras as Degraders of Stimulator of Interferon Genes with In Vivo Anti-Inflammatory Efficacy” (J Med Chem, 2022)

Legend:
[1] = target: T1, Protein cereblon/Stimulator of interferon genes protein (Homo sapiens, UniProt Q96SW2+Q86WV6); assay: Protac activity at CRBN/STING in human THP-1 cells assessed as increase in STING degradation at 10 uM incubated for 48 hrs by Western blot analysis relative to control; type: cell-based
Target sequence in this assay (Q86WV6 whole entry, looked up): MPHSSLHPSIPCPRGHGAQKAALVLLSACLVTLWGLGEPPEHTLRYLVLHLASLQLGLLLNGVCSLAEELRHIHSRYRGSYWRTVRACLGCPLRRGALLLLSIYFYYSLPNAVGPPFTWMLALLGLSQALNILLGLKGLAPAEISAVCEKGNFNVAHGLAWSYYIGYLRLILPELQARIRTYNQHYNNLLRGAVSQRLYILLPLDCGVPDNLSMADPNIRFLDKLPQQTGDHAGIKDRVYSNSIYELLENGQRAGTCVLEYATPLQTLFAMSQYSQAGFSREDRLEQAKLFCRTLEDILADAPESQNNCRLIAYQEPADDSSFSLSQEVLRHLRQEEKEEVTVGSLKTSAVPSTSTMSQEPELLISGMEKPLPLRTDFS
Target sequence in this assay (Q96SW2 whole entry, looked up): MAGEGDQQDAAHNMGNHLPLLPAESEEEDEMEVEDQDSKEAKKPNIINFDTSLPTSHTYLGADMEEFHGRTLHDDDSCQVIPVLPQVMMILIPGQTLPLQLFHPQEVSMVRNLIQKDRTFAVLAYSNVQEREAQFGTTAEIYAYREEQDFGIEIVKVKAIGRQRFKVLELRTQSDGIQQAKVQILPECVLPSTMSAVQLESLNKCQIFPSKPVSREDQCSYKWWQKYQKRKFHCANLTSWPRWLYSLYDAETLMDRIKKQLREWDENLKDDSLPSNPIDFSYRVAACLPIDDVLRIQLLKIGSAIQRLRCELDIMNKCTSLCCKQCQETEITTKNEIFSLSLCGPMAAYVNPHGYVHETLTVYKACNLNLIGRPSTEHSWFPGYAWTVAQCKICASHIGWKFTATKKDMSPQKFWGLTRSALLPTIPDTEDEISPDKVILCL

[2] = Cytotoxicity against HEK293-A cells assessed as reduction in cell viability at <10 uM by MTT assay; type: toxicity, cell-based; conditions: human
[3] = Cytotoxicity against mouse C17.2 cells assessed as reduction in cell viability at <10 uM by MTT assay; type: toxicity, cell-based; conditions: c17.2, 10 µM
[4] = target: T1, Protein cereblon/Stimulator of interferon genes protein; assay: Protac activity at CRBN/STING in human THP-1 cells assessed as increase in STING degradation incubated for 48 hrs by Western blot analysis; type: cell-based
Target sequence in this assay (Q96SW2 whole entry): as the sequence (Q96SW2 whole entry, looked up) above
Target sequence in this assay (Q86WV6 whole entry): as the sequence (Q86WV6 whole entry, looked up) above

L02 = assay: Cytotoxicity against human L02 cells assessed as reduction in cell viability at <10 uM by MTT assay; type: toxicity, cell-based; conditions: l02, 10 µM

In the case of `O=C(/C=C/C(=O)Nc1ccc(NC(=O)c2ccc([N+](=O)[O-])o2)cc1)NCCCCCNc1cccc2c1C(=O)N(C1CCC(=O)NC1=O)C2=O` (stereo not given), the Activity [1] is reported as 62%, the Activity [2] is reported as “Non-Toxic” and the Activity [3] is reported as “Non-Toxic”. The DC50 [4] was 9.2 µM and the Activity (L02) was “Non-Toxic”.
